Values of other authors in patent publication US20090069345A1, “Pharmaceutically Stable Compound Consisting of Timolol, Dorzolamide and Brimonidine” (priority 2007, published 2009).

How the values were obtained:
[1] = intravenous injection, first 3 hours
[2] = system: eye of a rabbit; settings: concentrations above those normally used in formulations

dose excreted in urine [1] | Compound | toxicity to the eye [2]
about 80% | OC[C@@H](O)[C@@H](O)[C@H](O)[C@H](O)CO [Mannitol] | 
 | Benzalkonium chloride | damaging
